In patent US20190209548A1, “LINKED DIARYL COMPOUNDS WITH ANTICANCER PROPERTIES AND METHODS OF USING THE SAME” (University of Maryland, College Park, priority 2014, published 2019):
Like-named read-outs stand apart in the source and are kept apart here.

Legend:
PC-3 = assay: WST-1 IC50 determination, PC-3; type: cell-based, human; settings: 72 hours, WST-1; for IC50: read-out: Anticancer activity IC50 ± SD, PC-3
Method: (§1) Cell lines and culturing. The following human cell lines were purchased from ATCC (ATCC, Manassas, Va.): prostate cancer cells (PC-3), triple negative breast cancer cells (MDA-MB-231), ovarian cancer cells (OVCAR-3), normal bone marrow (NBM) and normal fibroblast cells (MCR5A). MDA-MB-231 cells were grown at 37° C. with 5% CO2 atmosphere with DMEM (Life technologies, Carlsbad, Calif.) supplemented with heat-inactivated 10% (V/V) fetal bovine serum. OVCAR-3 and PC-3 cells were grown at 37° C. with 5% CO2 atmosphere with RPMI (Life technologies, Carlsbad, Calif.) supplemented with heat-inactivated 10% (V/V) fetal bovine serum. Cell lines were grown and maintained according to ATCC recommendations.
(§2) IC50 determination. Cell lines were seeded into 96-well plates the afternoon prior to treatment. Cell seeding number was determined by growing cells in log phase growth during drug treatment. Approximately 18 hours later, compounds were semi-serially diluted in dimethyl sulfoxide (DMSO) and then growth medium, and added to cells. Plates were incubated for 72 hours prior to addition of WST-1 (Promega, Madison Wis.). Plates were read after 4 additional hours of incubation at 37° C. using a Bio-Tek Synergy HT plate reader (Bio-Tek, Winooski, Vt.). Data was analyzed, graphed and IC50s generated using GraphPad Prism Software (Graphpad, La Jolla, Calif.).
(§3) IC50 determination: For the determination of IC50 for the azolamide class, the same protocol as described previously was followed.

c-MYC = assay: FRET melting assay, c-MYC; type: binding; settings: dual-labeled DNA 0.2 μM, DMZ analogues 1 μM, potassium cacodylate 60 mM pH 7.2
Method: (§4) Fluorescence resonance energy transfer (FRET) assay to determine Tm in absence and presence of ligands. Dual-labelled DNA was diluted from stock (50 μM) to 400 nM in 60 mM potassium cacodylate buffer (pH 7.2) and then annealed by heating at 85° C. for 10 min followed by cooling to room temperature in the heating block. Compounds were diluted from stock (20 mM in DMSO) to 2 μM in 60 mM cacodylate buffer (pH 7.2). 25 μL annealed DNA was added to 96-well plate followed by 25 μL diluted compounds. The sequences of labelled oligonucleotides were as follows: F21T 21-mer (5′-FAM-GGGTTAGGGTTAGGGTTAGGG-TAMRA-3′) (SEQ ID NO:11), c-kit2 26-mer (5′-FAM-CCCGGGCGGGCGCGAGGGAGGGGAGG-TAMRA-3′) (SEQ ID NO:12), k-RAS21R 21-mer (5′-FAM-AGGGCGGTGTGGGAAGAGGGA-TAMRA-3′) (SEQ ID NO:13), c-MYC 22-mer (5′-FAM-TGAGGGTGGGTAGGGTGGGTAA-TAMRA-3′) (SEQ ID NO:14) and duplex 26-mer (5′-FAM-TATAGCTATATTTTTTTATAGCTATA-TAMRA-3′) (SEQ ID NO: 15). Measurements were made in triplicate by using a LightCycler 480 System RT-PCR machine (Roche) and average values were reported. Fluorescence readings were made with excitation at 450-495 nm and detection at 515-545 nm, taken at intervals of 1.2° C./min in the range 25° C. to 95° C.

k-RAS21R = assay: FRET melting assay, k-RAS21R; type: binding; settings: dual-labeled DNA 0.2 μM, DMZ analogues 1 μM, potassium cacodylate 60 mM pH 7.2
Method: as §4

c-kit2 = assay: FRET melting assay, c-kit2; type: binding; settings: dual-labeled DNA 0.2 μM, DMZ analogues 1 μM, potassium cacodylate 60 mM pH 7.2
Method: as §4

duplex = assay: FRET melting assay, duplex DNA; type: binding; settings: dual-labeled DNA 0.2 μM, DMZ analogues 1 μM, potassium cacodylate 60 mM pH 7.2
Method: as §4

F21T = assay: FRET melting assay, F21T; type: binding; settings: dual-labeled DNA 0.2 μM, DMZ analogues 1 μM, potassium cacodylate 60 mM pH 7.2
Method: as §4

OVCAR-3 = assay: WST-1 IC50 determination, OVCAR-3; type: cell-based, human; settings: 72 hours, WST-1; for IC50: read-out: Anticancer activity IC50 ± SD, OVCAR-3
Method: as §1, §2, §3

MDA-MB-231 = assay: WST-1 IC50 determination, MDA-MB-231; type: cell-based, human; settings: 72 hours, WST-1; for IC50: read-out: Anticancer activity IC50 ± SD, MDA-MB-231
Method: as §1, §2, §3

[1] = Human liver microsome stability; type: in vitro ADME
Text: An established method to determine the pharmacokinetic clearance of a compound in humans is to measure the degradation of the compound in the presence of human liver microsomes. The following is the half-lives of the four compounds in human liver microsomes: […]

| Compound | IC50 (PC-3) [µM] | ΔTm c-MYC (c-MYC) [°C] | ΔTm k-RAS21R (k-RAS21R) [°C] | ΔTm c-kit2 (c-kit2) [°C] | ΔTm duplex (duplex) | ΔTm F21T (F21T) [°C] | IC50 (OVCAR-3) [µM] | IC50 (MDA-MB-231) [µM] | Anticancer activity IC50 ± SD, PC-3 (PC-3) | Anticancer activity IC50 ± SD, OVCAR-3 (OVCAR-3) | Anticancer activity IC50 ± SD, MDA-MB-231 (MDA-MB-231) | NADPH-independent T½ ([1]; human liver microsomes) [h] | half-life ([1]; human liver microsomes, read-out: NADPH-dependent T½) [h] | half-life ([1]; human, liver microsomes, read-out: NADPH-dependent T½) [h] | half-life ([1]; human, liver microsomes, read-out: NADPH-independent T½) [h] |
| --- | --- | --- | --- | --- | --- | --- | --- | --- | --- | --- | --- | --- | --- | --- | --- |
| C#Cc1ccccc1NN=Nc1ccc(C(=N)N)cc1 [DMZ11] | > 50 | 8.77 ± 0.00 | 2.19 ± 0.26 | 7.68 ± 0.00 | NE (NE means not effective binding (ΔTm < 1° C.)) | 4.20 ± 0.00 | > 25 | 23.2 |  |  |  |  |  |  |  |
| N=C(N)c1ccc(N=NNc2cccc(C#Cc3ccccc3)c2)cc1 [DMZ7] | 5.8 ± 0.2 | 7.33 ± 0.26 | 2.56 ± 0.00 | 6.40 ± 0.26 | NE (NE means not effective binding (ΔTm < 1° C.)) | 4.20 ± 0.00 | 6.5 ± 2.1 | 9.5 ± 1.3 |  |  |  |  |  |  |  |
| N=C(N)c1ccc(N=NNc2ccncc2)cc1 [DMZ14] |  | 6.97 ± 0.26 | 2.19 ± 0.26 | 6.58 ± 0.78 | NE (NE means not effective binding (ΔTm < 1° C.)) | 4.20 ± 0.00 |  |  | NE (NE means not effective. Cell viability was the same or greater than 75% of the DMSO control at 20 μM compound concentration.) | NE (NE means not effective. Cell viability was the same or greater than 75% of the DMSO control at 20 μM compound concentration.) | NE (NE means not effective. Cell viability was the same or greater than 75% of the DMSO control at 20 μM compound concentration.) |  |  |  |  |
| CC(C)NC(=N)c1ccc(/N=N/c2c(N)ncc3ccc(Br)cc23)cc1 [HSY430-5] |  |  |  |  |  |  |  |  |  |  |  | >4 | > 4 |  |  |
| N=C(N)c1ccc(N=NNc2cccc(-c3ccccc3)c2)cc1 [DMZ6] |  | 7.49 ± 0.26 | 4.20 ± 0.90 | 5.48 ± 0.45 | NE (NE means not effective binding (ΔTm < 1° C.)) | 4.57 ± 0.26 |  |  | NE (NE means not effective. Cell viability was the same or greater than 75% of the DMSO control at 20 μM compound concentration.) | NE (NE means not effective. Cell viability was the same or greater than 75% of the DMSO control at 20 μM compound concentration.) | NE (NE means not effective. Cell viability was the same or greater than 75% of the DMSO control at 20 μM compound concentration.) |  |  |  |  |
| Nc1cccc(C#Cc2ccc(F)cc2)c1 [compound 15, reference compound] |  |  |  |  |  |  |  |  | NE (NE means not effective. Cell viability was the same or greater than 75% of the DMSO control at 20 μM compound concentration.) | NE (NE means not effective. Cell viability was the same or greater than 75% of the DMSO control at 20 μM compound concentration.) | NE (NE means not effective. Cell viability was the same or greater than 75% of the DMSO control at 20 μM compound concentration.) |  |  |  |  |
| N=C(N)c1ccc(N=NNc2ccccc2C#Cc2ccccc2)cc1 [DMZ12] | 5.3 ± 0.2 | 7.15 ± 0.00 | 2.19 ± 0.26 | 5.12 ± 0.26 | NE (NE means not effective binding (ΔTm < 1° C.)) | 4.20 ± 0.00 | 8.1 ± 0.5 | 5.1 ± 0.4 |  |  |  |  |  |  |  |
| N=C(N)c1ccc(N=NNc2cccc(C#Cc3ccccn3)c2)cc1 [DMZ8] | 10.4 ± 1.4 | 9.32 ± 0.00 | 14.62 ± 0.45 | 8.04 ± 0.26 | NE (NE means not effective binding (ΔTm < 1° C.)) | 4.75 ± 0.00 | 10.7 ± 1.5 | 14.4 ± 0.9 |  |  |  |  |  |  |  |
| N=C(N)c1ccc(N)cc1 [4-aminobenzamidine, reference compound] |  |  |  |  |  |  |  |  | NE (NE means not effective. Cell viability was the same or greater than 75% of the DMSO control at 20 μM compound concentration.) | NE (NE means not effective. Cell viability was the same or greater than 75% of the DMSO control at 20 μM compound concentration.) | NE (NE means not effective. Cell viability was the same or greater than 75% of the DMSO control at 20 μM compound concentration.) |  |  |  |  |
| CCCCNC(=N)c1ccc(/N=N/c2c(N)ncc3ccc(Br)cc23)cc1 [HSY430-6] |  |  |  |  |  |  |  |  |  |  |  |  |  | 2.57 | 2.38 |
| N#Cc1ccc(NN=Nc2ccc(C(=N)N)cc2)cc1 [DMZ2] |  | 8.06 ± 0.68 | 7.49 ± 0.00 | 5.30 ± 0.26 | NE (NE means not effective binding (ΔTm < 1° C.)) | 4.20 ± 0.00 |  |  | NE (NE means not effective. Cell viability was the same or greater than 75% of the DMSO control at 20 μM compound concentration.) | NE (NE means not effective. Cell viability was the same or greater than 75% of the DMSO control at 20 μM compound concentration.) | NE (NE means not effective. Cell viability was the same or greater than 75% of the DMSO control at 20 μM compound concentration.) |  |  |  |  |
| C#Cc1cccc(NN=Nc2ccc(C(=N)N)cc2)c1 [DMZ5] | 18 ± 5.7 | 7.51 ± 0.26 | 6.39 ± 0.89 | 5.48 ± 0.45 | NE (NE means not effective binding (ΔTm < 1° C.)) | 4.39 ± 0.26 | 16.8 ± 3.1 | 20.5 ± 4.2 |  |  |  |  |  |  |  |
| C#Cc1ccc(NN=Nc2ccc(C(=N)N)cc2)cc1 [DMZ3] | 22.5 ± 8.8 | 7.13 ± 0.45 | 5.66 ± 0.51 | 5.30 ± 0.26 | NE (NE means not effective binding (ΔTm < 1° C.)) | 4.57 ± 0.26 | 11.8 ± 1.7 | 30.2 ± 1.8 |  |  |  |  |  |  |  |
| COc1ccc(C#Cc2cccc(NN=Nc3ccc(C(=N)N)cc3)c2)cc1 [DMZ10] | 5 ± 0.9 | 8.06 ± 0.26 | 1.65 ± 0.26 | 5.48 ± 0.00 | NE (NE means not effective binding (ΔTm < 1° C.)) | 4.39 ± 0.26 | 5.2 ± 0.4 | 5.5 |  |  |  |  |  |  |  |
| N#Cc1cccc(NN=Nc2ccc(C(=N)N)cc2)c1 [DMZ4] |  | 6.94 ± 0.26 | 2.00 ± 0.45 | 6.22 ± 0.26 | NE (NE means not effective binding (ΔTm < 1° C.)) | 4.57 ± 0.26 |  |  | NE (NE means not effective. Cell viability was the same or greater than 75% of the DMSO control at 20 μM compound concentration.) | NE (NE means not effective. Cell viability was the same or greater than 75% of the DMSO control at 20 μM compound concentration.) | NE (NE means not effective. Cell viability was the same or greater than 75% of the DMSO control at 20 μM compound concentration.) |  |  |  |  |
